Experiment [1] deals with Vibrio parahaemolyticus. As to the kind of experiment: Antimicrobial activity against Vibrio parahaemolyticus assessed as bacterial growth inhibition. Type of experiment: functional.
In another experiment the test system is Vibrio cholerae. As to the kind of experiment: Antimicrobial activity against Vibrio cholerae assessed as bacterial growth inhibition. The experiment is classed as functional.
Experiment [2] has as its system Vibrio parahaemolyticus. Nature of the experiment: Antimicrobial activity against Vibrio parahaemolyticus ATCC 17802 assessed as bacterial growth inhibition by microplate reader assay. Type of experiment: functional.
Experiment [3] has as its system Vibrio alginolyticus. Nature of the experiment: Antimicrobial activity against Vibrio alginolyticus assessed as bacterial growth inhibition by microplate reader assay. Type of experiment: functional.
The test system of experiment [4] is Vibrio alginolyticus. Nature of the experiment: Antimicrobial activity against Vibrio alginolyticus assessed as zone of inhibition. The experiment is classed as functional.
The test system of experiment [5] is Vibrio parahaemolyticus. Nature of the experiment: Antimicrobial activity against Vibrio parahaemolyticus assessed as zone of inhibition. The experiment is classed as functional.
Experiment [6] deals with Vibrio anguillarum. Nature of the experiment: Antimicrobial activity against Vibrio anguillarum assessed as zone of inhibition. The experiment is classed as functional.
Experiment [7] deals with Vibrio harveyi. As to the kind of experiment: Antimicrobial activity against Vibrio harveyi assessed as zone of inhibition. The experiment is classed as functional.
Another experiment concerns Vibrio splendidus. Nature of the experiment: Antimicrobial activity against Vibrio splendidus assessed as zone of inhibition. The experiment is classed as functional.
Experiment [8] relates to Vibrio harveyi. Nature of the experiment: Antimicrobial activity against Vibrio harveyi QDIO-7 assessed as bacterial growth inhibition by microplate reader assay. Type of experiment: functional.
The subject of experiment [9] is Vibrio parahaemolyticus. As to the kind of experiment: Antimicrobial activity against Vibrio parahaemolyticus QDIO-10 assessed as bacterial growth inhibition measured after 24 hrs by microtitre plate reader assay. The experiment is classed as functional.
Experiment [10] relates to Vibrio anguillarum. As to the kind of experiment: Antimicrobial activity against Vibrio anguillarum QDIO-8 assessed as bacterial growth inhibition measured after 24 hrs by microtitre plate reader assay. The experiment is classed as functional.
Experiment [11] concerns Vibrio harveyi. Nature of the experiment: Antimicrobial activity against Vibrio harveyi QDIO-9 assessed as bacterial growth inhibition measured after 24 hrs by microtitre plate reader assay. Type of experiment: functional.
Experiment [12] relates to Vibrio anguillarum. As to the kind of experiment: Antimicrobial activity against Vibrio anguillarum QDIO-6 assessed as bacterial growth inhibition by microtiter plate assay. The experiment is classed as functional.
Experiment [13] concerns Vibrio harveyi. Nature of the experiment: Antimicrobial activity against Vibrio harveyi BB120 assessed as bacterial growth inhibition by bioluminescence based Quorum-Sensing assay. The experiment is classed as functional, organism-based.
Experiment [14] deals with Vibrio anguillarum. As to the kind of experiment: Antimicrobial activity against Vibrio anguillarum assessed as bacterial growth inhibition. The experiment is classed as functional.
The test system of experiment [15] is Vibrio harveyi. Nature of the experiment: Antimicrobial activity against Vibrio harveyi assessed as bacterial growth inhibition. The experiment is classed as functional.
The test system of experiment [16] is Vibrio vulnificus. As to the kind of experiment: Antimicrobial activity against Vibrio vulnificus MCCC E1758 assessed as bacterial growth inhibition by resazurin dye based assay. The experiment is classed as functional.
Experiment [17] has as its system Vibrio vulnificus. As to the kind of experiment: Antimicrobial activity against Vibrio vulnificus assessed as bacterial growth inhibition. The experiment is classed as functional.
Experiment [18] relates to Vibrio parahaemolyticus. Nature of the experiment: Antibacterial activity against Vibrio parahaemolyticus assessed as bacterial growth inhibition by agar dilution method. Type of experiment: functional.
For experiment [19], the system named is Vibrio parahaemolyticus. As to the kind of experiment: Antimicrobial activity against Vibrio parahaemolyticus ATCC 17802 assessed as bacterial growth inhibition mesured after 48 hrs by broth dilution assay. Type of experiment: functional.
Experiment [20] deals with Vibrio parahaemolyticus. As to the kind of experiment: Bactericidal activity against Vibrio parahaemolyticus ATCC 17802 assessed as bacterial growth inhibition mesured after 48 hrs by broth dilution assay. Type of experiment: functional.
The next experiment deals with Vibrio brasiliensis. Nature of the experiment: Antimicrobial activity against Vibrio brasiliensis assessed as bacterial growth inhibition. Type of experiment: functional.
A further experiment deals with Vibrio rotiferianus. Nature of the experiment: Antimicrobial activity against Vibrio rotiferianus assessed as bacterial growth inhibition. Type of experiment: functional.
The subject of another experiment is Vibrio campbellii. As to the kind of experiment: Antimicrobial activity against Vibrio campbellii assessed as bacterial growth inhibition. The experiment is classed as functional.
Experiment [21] relates to Vibrio harveyi. As to the kind of experiment: Antimicrobial activity against Vibrio harveyi QDIO-9 assessed as bacterial growth inhibition. The experiment is classed as functional.
For experiment [22], the system named is Vibrio parahaemolyticus. Nature of the experiment: Antimicrobial activity against Vibrio parahaemolyticus QDIO-10 assessed as bacterial growth inhibition. The experiment is classed as functional.
For a further experiment, the system named is Vibrio mediterranei. Nature of the experiment: Antimicrobial activity against Vibrio mediterranei assessed as bacterial growth inhibition. Type of experiment: functional.

In brackets after ≈: the same amount, converted by molar mass.

`O=C(O)c1cc(Cl)c[nH]1`: the MIC is 25 µg/mL (≈ 172 µM) in the experiment on Vibrio parahaemolyticus [1] and 100 µg/mL (≈ 687 µM) in the experiment on Vibrio cholerae.

Take `COc1c(Cl)c(C)c(Cl)c2c1[C@H]1c3c(O)c(C)cc(O)c3C[C@H]1C(C)(C)O2` (racemic): the minimal inhibitory concentration (MIC) with Vibrio parahaemolyticus [2] and with Vibrio alginolyticus [3] was 10 µM each time.

In the case of `O=C1N[C@H](Cc2ccccc2)C(=O)N2C[C@@H](O)C[C@@H]12`, the figures for the “inhibition zone (IZ)” value in the experiment on Vibrio alginolyticus [4] and in the experiment with Vibrio parahaemolyticus [5] were 20 mm and 12 mm, respectively.

With `CC(=O)CCC[C@H](C)[C@@H]1C=C[C@@](C)(O[C@H]2O[C@H](CO)[C@@H](O)[C@H](O)[C@H]2NC(C)=O)CC1`, in the experiment with Vibrio parahaemolyticus [5], the “inhibition zone (IZ)” value was 6.1 mm. Moreover, the MIC in the experiment on Vibrio anguillarum [6], with Vibrio harveyi [7] and with Vibrio splendidus was 6.1 µg/mL (≈ 14.3 µM) each time.

Consider `O=C1CC[C@@H](c2ccc(O)c3c2C(=O)CCC3=O)c2cccc(O)c21`, for which, in the experiment on Vibrio harveyi [8], the minimal inhibitory concentration (MIC) is 4 µg/mL.

As to `COC(=O)c1ccc([C@](C)(O)CCCC(C)(C)O)c(O)c1`, the MIC in the experiment on Vibrio parahaemolyticus [9], with Vibrio anguillarum [10] and in the experiment on Vibrio harveyi [11] was 4 µg/mL (≈ 13.5 µM) in each case.

With `COC(=O)[C@H](O)CS[C@H]1CC(=O)O[C@H](C)CCCCCC[C@@H]1O`, the MIC in the experiment on Vibrio anguillarum [12] was found to be 4 µg/mL.

With `CC[C@H](C)[C@@H]1NC(=O)[C@@H](Cc2ccccc2)n2c1nc1c(c2=O)C=CC=CO1`, the MIC with Vibrio harveyi [8] amounted to 64 µg/mL.

With `CCOC(=O)C[C@H](O)COC(=O)/C=C/CCl`, the IC50 in the experiment on Vibrio harveyi [13] stood at 17.6 µM.

With `CC(C)=CCc1ccc(O)c(C=O)c1`, the minimum inhibitory concentration (MIC) with Vibrio anguillarum [14] was 65 µM (≈ 12.4 µg/mL); in the experiment on Vibrio harveyi [15], 65 µg/mL (≈ 342 µM).

`CCOC(=O)Cc1cc(OC)cc(OC)c1C(=O)CC`: the MIC in the experiment with Vibrio vulnificus [16] worked out at 15.6 µg/mL (≈ 55.7 µM).

As for `CC(C)C[C@H]1NC(=O)[C@H]2C[C@H](O)CN2C1=O`, the “inhibition zone (IZ)” value with Vibrio alginolyticus [4] was determined as 22 mm; in the experiment on Vibrio parahaemolyticus [5], 14 mm.

Turning to `CO[C@](C)(CCCC(C)(C)O)c1ccc(C(=O)O)cc1O`, the MIC in the experiment with Vibrio parahaemolyticus [9], with Vibrio anguillarum [10] and in the experiment with Vibrio harveyi [11] was 4 µg/mL (≈ 13.5 µM) throughout.

Consider `COc1cc(O)c2c(=O)c(C)c(C)oc2c1O`, for which the MIC in the experiment with Vibrio vulnificus [17] worked out at 32 µg/mL (≈ 135 µM).

As to `CO[C@H](C)[C@@H](/C=C/C=C/C(=O)N(C)[C@H]1CCCN(C)C(=O)[C@H](C)N(C)C(=O)[C@H](C(C)C)N(C)C1=O)OC`, in the experiment on Vibrio parahaemolyticus [18], the minimal inhibitory concentration (MIC) stood at 25 µM (≈ 13.1 µg/mL).

With `CC(C)/C=C1\NC(=O)[C@@H](Cc2ccccc2)n2c1nc1ccccc1c2=O`, in the experiment on Vibrio harveyi [8], the minimal inhibitory concentration (MIC) is 64 µg/mL.

Consider `CC(C)(O)CCCC(C)(O)c1ccc(C(=O)O)cc1O` (stereo not given), for which the minimal inhibitory concentration (MIC) in the experiment with Vibrio parahaemolyticus [9], with Vibrio anguillarum [10] and in the experiment with Vibrio harveyi [11] was 4 µg/mL (≈ 14.2 µM) each time.

Consider `CC(C)[C@H]1C(=O)N(C)[C@@H](C)C(=O)NCCC[C@H](NC(=O)/C=C/C=C/C(=O)O)C(=O)N1C`, for which, in the experiment on Vibrio parahaemolyticus [18], the minimum inhibitory concentration (MIC) was determined as 3.13 µM (≈ 1.37 µg/mL).

As for `CC(=O)N[C@H]1[C@@H](O[C@]2(C)C=C[C@@H]([C@@H](C)CCC=C(C)C)CC2)O[C@H](CO)[C@@H](O)[C@@H]1O`, the “inhibition zone (IZ)” value with Vibrio parahaemolyticus [5] amounted to 6.1 mm. Also, the MIC in the experiment on Vibrio anguillarum [6], in the experiment with Vibrio harveyi [7] and in the experiment on Vibrio splendidus was 6.1 µg/mL (≈ 14.3 µM) in each case.

For the molecule `CCOC(=O)Cc1cc(O)cc(O)c1C(=O)CC`, in the experiment on Vibrio vulnificus [16], the minimum inhibitory concentration (MIC) was found to be 15.6 µg/mL (≈ 61.8 µM).

On to `COc1ccc(Oc2cc(C)cc(O)c2)c(O[C@@H]2O[C@H](CO)[C@H](O)[C@H](O)[C@H]2O)c1`, for which the minimal inhibitory concentration (MIC) with Vibrio parahaemolyticus [19] is 0.625 µM (≈ 0.255 µg/mL). Moreover, in the experiment on Vibrio parahaemolyticus [20], the minimal bactericidal concentration (MBC) came out at 2.5 µM (≈ 1.02 µg/mL).

With `CCCCCC(=O)NCCc1ccccc1`, the 50% inhibitory concentration (IC50) in the experiment with Vibrio harveyi [13] stood at 99 µM.

Take `COC(=O)[C@H](O)CS[C@@H]1CCCCCCC[C@@H](C)OC(=O)C1`: the minimal inhibitory concentration (MIC) in the experiment on Vibrio anguillarum [12] was 2 µg/mL.

As to `CC(C)[C@@H](C)/C=C/[C@@H](C)[C@H]1CC[C@H]2C3=CC(=O)[C@@]45C[C@@H](O)CC[C@]4(C)[C@]3(CC[C@]12C)O5`, in the experiment on Vibrio brasiliensis, the MIC is 16 µg/mL (≈ 37.5 µM).

As to `Cc1cc(O)c2c(c1)C(=O)c1cc(O)cc(O)c1C2=O` [EMODIN], the MIC in the experiment with Vibrio vulnificus [17], with Vibrio rotiferianus and in the experiment with Vibrio campbellii was 15.6 µg/mL (≈ 57.7 µM) throughout.

As for `C=C[C@@]1(C)CCC2=C(C(=O)C=C3C(C)(C)CCC[C@]32O)[C@H]1O`, the MIC in the experiment with Vibrio harveyi [21] and in the experiment with Vibrio parahaemolyticus [22] was 8 µg/mL (≈ 26.5 µM) throughout.

Consider `O=C1c2cccc(O)c2C(=O)c2c1cc(O)c(C(CO)CCO)c2O` (stereo not given), for which the minimum inhibitory concentration (MIC) with Vibrio parahaemolyticus [2] was found to be 24 µg/mL.

Regarding `CC(C)[C@@H](C)/C=C/[C@@H](C)[C@H]1CC[C@@H]2[C@]1(C)CCC1[C@@]23OO[C@]2(C=C3O)C[C@@H](O)CC[C@]12C` (stereo not given in full), the MIC in the experiment with Vibrio brasiliensis was 32 µg/mL (≈ 72 µM); in the experiment on Vibrio mediterranei, 8 µg/mL (≈ 18 µM).

The record behind these values is ChEMBL document CHEMBL5360560, “Anti-Vibrio potential of natural products from marine microorganisms” (Eur J Med Chem, 2023).
